Data reported in patent publication US20080063720A1, “Delivery System” (priority 2004, published 2008).

Assays:
[1] = system: THP-1 differentiated macrophages; experiment: Brefeldin A effect on intranuclear accumulation of quantum dots; assay type: cell-based, human; details: Brefeldin A 20 μg/ml for 30 min, washed out before particles were added
Description: In the studies referred to in FIGS. 1-10, Human THP-1 monocytes, the transformed epithelial cell lines HT-29, HCT-116 and T cell lymphoma cell line HUT-78 were obtained from the European Collection of Animal Cell Cultures (ECACC, Salisbury, UK). Cells were grown in RPMI 1640 medium supplemented with 10% heat-inactivated fetal bovine serum (FBS), 2 mM L-glutamine/L, 100 μg penicillin/ml and […], and incubated at 37° C. in 5% CO2. To induce monocyte to macrophage differentiation, THP-1 cells were cultured in the presence of 100 ng/ml PMA for 72 h.
Prior to incubation with CdTe particles THP-1 differentiated macrophages were incubated with the Golgi complex disrupter Brefeldin A for 30 min at 20 μg/ml. Following a wash out, green 2.2 nm size CdTe particles were added to the cells.

[2] = system: human primary macrophage cells; experiment: Thapsigargin effect on intranuclear accumulation of quantum dots; assay type: cell-based; details: thapsigargin 100 mM for 30 min, washed out before incubation with particles
Description: Nuclear import inhibitor thapsigargin ([…]) was added to the cells for 30 min and subsequently washed out with pre-warmed culture medium prior to incubation with 2.2 nm size (green emitting) CdTe particles.

SMILES | effect on distribution and intranuclear accumulation of 2.2 nm green CdTe particles [1] | effect on intranuclear accumulation of 2.2 nm green CdTe particles [2]
C[C@H]1CCC/C=C/[C@@H]2C[C@H](O)C[C@H]2[C@H](O)/C=C/C(=O)O1 [brefeldin A, Brefeldin A] | dispersion of quantum dots and partial block of intranuclear accumulation | 
C/C=C(/C)C(=O)O[C@H]1C(C)=C2[C@H]([C@@H]1OC(=O)CCCCCCC)[C@@](C)(OC(C)=O)C[C@H](OC(=O)CCC)[C@@]1(O)[C@H]2OC(=O)[C@@]1(C)O [thapsigargin] |  | blockade of intranuclear accumulation
